Columns and labels:
[1] = target: hLPAR1 (human lysophosphatidic acid receptor 1) (Homo sapiens, UniProt Q92633); assay: FLIPR assay of intracellular calcium increase induced by activation of hLPAR1 expressed in CHO-K1 cells; assay type: cell-based; conditions: CHO-K1 cells expressing hLPAR1, agonist oleoyl-L-α-lysophosphatidic acid 1 μM; read-out: LPAR1 IC50
How it was run: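 CHO-K1 cells expressing hLPAR1 were loaded with Fluo-4 AM for 1.0 h at 37° C, then preincubated 30 min at room temperature with compound. Oleoyl-LPA was added at 1 μM final, and calcium fluorescence was recorded by FLIPR for 2 min at 1-s intervals to assess antagonism.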

[2] = tested on: A2058 (human melanoma cells); assay: A2058 cell scratch (migration) assay with LPA; assay type: cell-based; conditions: 10 μM LPA, scratch area at 24 h
[3] = In vitro cytotoxicity assay in HepG2 cells, CCK-8 method; assay type: cell-based; conditions: human
Experimental: In vitro cytotoxicity assay for the compounds disclosed herein was performed in HepG2 cells using the CCK-8 method. HepG2 cells (Beina Bio) in the logarithmic growth phase were collected, the concentration of cell suspension was adjusted, and then the cells were plated on a 96-well cell culture plate at 50,000 cells/well. The cells were then incubated overnight in a cell incubator (5% CO2, 37° C.), and after 80-90% cell confluence was achieved, test compounds or vehicle (DMSO) at various concentration gradients were added after medium change. The resulting mixture was incubated in the cell incubator (5% CO2, 37° C.) for 48 h. After the treatment, the medium in the plate was discarded. The plate was washed twice with PBS, added with CCK-8 working solution (Beyotime) at 100 μL per well, and then incubated at 37° C. for 1.5 h away from the light. Absorbance at OD450 nm was measured for each well on a microplate reader, and CC50 value of each compound was analyzed and calculated.

[4] = In vitro metabolic stability, human liver microsomes; assay type: in vitro ADME; conditions: 1 mg/mL liver microsome protein, 37° C., read-out: Metabolism in human liver microsome T½ min
Experimental: (§1) The in vitro metabolic stability of the compounds disclosed herein was determined through incubation of liver microsomes of various species. A proper amount of test compound was added into a liver microsome reaction system (1 mg/mL liver microsome protein, 25 U/mL glucose-6 phosphate dehydrogenase, 1 mM NADP, 6 mM D-glucose 6-phosphate and 5 mM MgCl2), and then the mixture was incubated in a water bath kettle at 37° C. to start reaction. At each time point, 100 μL of the reaction system was added into a centrifuge tube containing 400 μL of internal standard working solution (containing a 200 ng/mL solution of dexamethasone, diclofenac, tolbutamide and labetalol in acetonitrile) precooled at 0° C. so as to stop the reaction, and the mixture was then centrifuged at 10,000 g for 10 min at 4° C. The supernatant was collected for LC-MS assay so as to obtain the values of in vitro metabolic half-life of the test compounds in liver microsomes of various species.

[5] = In vitro metabolic stability, rat liver microsomes; assay type: in vitro ADME; conditions: 1 mg/mL liver microsome protein, 37° C., read-out: Metabolism in rat liver microsome T½ min
Experimental: as §1

[6] = In vitro metabolic stability, mouse liver microsomes; assay type: in vitro ADME; conditions: 1 mg/mL liver microsome protein, 37° C., read-out: Metabolism in mouse liver microsome T½ min
Experimental: as §1

Sequence of hLPAR1 (human lysophosphatidic acid receptor 1) (Q92633 whole entry): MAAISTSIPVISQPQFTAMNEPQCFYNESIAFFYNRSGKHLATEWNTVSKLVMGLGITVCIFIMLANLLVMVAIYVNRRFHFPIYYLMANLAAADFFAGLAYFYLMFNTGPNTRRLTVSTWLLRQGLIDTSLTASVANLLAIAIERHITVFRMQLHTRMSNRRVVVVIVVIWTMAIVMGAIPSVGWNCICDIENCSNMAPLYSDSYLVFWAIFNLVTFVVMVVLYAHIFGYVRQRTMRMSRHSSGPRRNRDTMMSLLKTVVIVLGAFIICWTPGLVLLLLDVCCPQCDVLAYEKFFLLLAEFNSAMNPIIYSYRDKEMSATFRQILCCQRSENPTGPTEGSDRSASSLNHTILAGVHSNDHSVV

| IC50 [1] | half-life [4] | half-life [5] | half-life [6] | Structure (SMILES) | Cell migration inhibition rate (%) [2] | CC50 at 48 h [3] |
| --- | --- | --- | --- | --- | --- | --- |
| < 0.05 µM | 10.3 h | 1.81 h |  | Cc1nc(-c2cnn(C)c2COC(=O)N(C)C2CCCC2)ccc1O[C@H]1CCC[C@H](C(=O)O)C1 (racemic) [Compound 16, (+/−)-(1S,3S)-3-((6-(5-(((cyclopentyl(methyl)carbamoyl)oxy)methyl)-1-methyl-1H-pyrazol-4-yl)-2-methylpyridin-3-yl)oxy)cyclohexane-1-carboxylic Acid] | A (A: 50-70%) | > 200 µM |
| < 0.05 µM | 6.43 h | 0.749 h | 8.96 h | CN(C(=O)OCc1c(-c2ccc(O[C@H]3CCC[C@H](C(=O)O)C3)c(C(F)F)n2)cnn1C)C1CCCC1 (racemic) [Compound 63, (+/−)-(1S,3S)-3-((6-(5-(((cyclopentyl(methyl)carbamoyl)oxy)methyl)-1-methyl-1H-pyrazol-4-yl)-2-(difluoromethyl)pyridin-3-yl)oxy)cyclohexane-1-carboxylic Acid] | B (B: 30-50%) | > 200 µM |
| < 0.05 µM | 8.21 h | 1.56 h | 11.7 h | Cc1nc(-c2cnn(C)c2COC(=O)N(C)C2CCCC2)cnc1O[C@H]1CCC[C@H](C(=O)O)C1 (racemic) [Compound 66] | B (B: 30-50%) |  |
| < 0.05 µM | 2.42 h | 0.473 h | 5.66 h | Cc1nc(-c2onc(C)c2COC(=O)N(C)C2CCCC2)ccc1O[C@H]1CCC[C@H](C(=O)O)C1 (racemic) [Compound 36] | A (A: 50-70%) | > 200 µM |
| < 0.05 µM | > 0.5 h | < 0.5 h | > 0.5 h | Cc1nsc(-c2ccc(O[C@H]3CCC[C@H](C(=O)O)C3)cc2)c1COC(=O)N(C)C1CCCC1 (racemic) [Compound 28, (+/−)-(1S,3S)-3-(4-(4-(((cyclopentyl(methyl)carbamoyl)oxy)methyl)-3-methylisothiazol-5-yl)phenoxy)cyclohexane-1-carboxylic Acid] | A (A: 50-70%) | > 200 µM |
| < 0.05 µM | 1.81 h | 0.0468 h | 2.48 h | Cc1onc(-c2ccc(O[C@H]3CCC[C@H](C(=O)O)C3)cc2)c1COC(=O)N(C)C1CCCC1 (racemic) [Compound 7, (+/−)-(1S,3S)-3-(4-(4-(((cyclopentyl(methyl)carbamoyl)oxy)methyl)-5-methylisoxazol-3-yl)phenoxy)cyclohexane-1-carboxylic Acid] | A (A: 50-70%) | > 200 µM |
| 0.3 to 10 µM | > 0.5 h | > 0.5 h | > 0.5 h | CN(C(=O)OCc1ocnc1-c1ccc(O[C@H]2CCC[C@H](C(=O)O)C2)cn1)C1CCCC1 (racemic) [Compound 14] | C (C: 0-30%) | > 200 µM |
|  | 2.19 h | 0.218 h | 2.79 h | Cc1noc(-c2ccc(O[C@H]3CCC[C@H](C(=O)O)C3)cc2)c1COC(=O)N(C)C1CCCC1 (racemic) [Compound 4, (+/−)-(1S,3S)-3-(4-(4-(((cyclopentyl(methyl)carbamoyl)oxy)methyl)-3-methylisoxazol-5-yl)phenoxy)cyclohexane-1-carboxylic Acid] |  | > 200 µM |
| 0.3 to 10 µM | > 0.5 h | > 0.5 h | > 0.5 h | CN(C(=O)OCc1ocnc1-c1ccc(O[C@H]2CCC[C@H](C(=O)O)C2)cc1)C1CCCC1 (racemic) [Compound 8, (+/−)-(1S,3S)-3-(4-(5-(((cyclopentyl(methyl)carbamoyl)oxy)methyl)oxazol-4-yl)phenoxy)cyclohexane-1-carboxylic Acid] | C (C: 0-30%) | > 200 µM |
| 0.05 to 0.3 µM | 1.15 h | 0.287 h | 3.55 h | CN(C(=O)OCc1c(-c2ccc(O[C@H]3CCC[C@H](C(=O)O)C3)c(C(F)(F)F)n2)cnn1C)C1CCCC1 (racemic) [Compound 13, (+/−)-(1S,3S)-3-((6-(5-(((cyclopentyl(methyl)carbamoyl)oxy)methyl)-1-methyl-1H-pyrazol-4-yl)-2-(trifluoromethyl)pyridin-3-yl)oxy)cyclohexane-1-carboxylic Acid] | B (B: 30-50%) | > 200 µM |
|  | > 0.5 h | > 0.5 h | > 0.5 h | CN(C(=O)OCc1c(-c2ccc(O[C@H]3CCC[C@H](C(=O)O)C3)cc2)cnn1C)C1CCCC1 (racemic) [Compound 11, (+/−)-(1S,3S)-3-(4-(5-(((cyclopentyl(methyl)carbamoyl)oxy)methyl)-1-methyl-1H-pyrazol-4-yl)phenoxy)cyclohexane-1-carboxylate] | A (A: 50-70%) | > 200 µM |
| < 0.05 µM |  |  |  | Cc1n[nH]c(-c2ccc(O[C@H]3CCC[C@H](C(=O)O)C3)cc2)c1COC(=O)N(C)C1CCCC1 (racemic) [Compound 27] | B (B: 30-50%) | > 200 µM |
| < 0.05 µM |  |  |  | Cc1nc(-c2ncnc(C)c2COC(=O)N(C)C2CCCC2)ccc1O[C@H]1CCC[C@H](C(=O)O)C1 (racemic) [Compound 51] | A (A: 50-70%) | > 200 µM |
| 0.3 to 10 µM |  |  |  | CN(Cc1ccccc1)C(=O)OCc1nc2c(O[C@H]3CCC[C@H](C(=O)O)C3)cccc2s1 (racemic) [Compound 23, (+/−)-(1S,3S)-3-((2-(((benzyl(methyl)carbamoyl)oxy)methyl)benzo[d]thiazole-4-yl)oxy)cyclohexane-1-carboxylic Acid] | C (C: 0-30%) | > 200 µM |
| < 0.05 µM |  |  |  | Cc1nc(-c2cnnc(COC(=O)N(C)C3CCCC3)c2)ccc1O[C@H]1CCC[C@H](C(=O)O)C1 (racemic) [Compound 47] | B (B: 30-50%) | > 200 µM |
| < 0.05 µM |  |  |  | Cc1nc(-c2nsc(C)c2COC(=O)N(C)C2CCCC2)ccc1O[C@H]1CCC[C@H](C(=O)O)C1 (racemic) [Compound 39] | B (B: 30-50%) | > 200 µM |
| 0.3 to 10 µM |  |  |  | CN(C(=O)OCc1ccccc1-c1ccc(O[C@H]2CCC[C@H](C(=O)O)C2)cc1)C1CCCC1 (racemic) [Compound 21, (+/−)-(1S,3S)-3-((2′-(((cyclopentyl(methyl)carbamoyl)oxy)methyl)-[1,1′-biphenyl]-4-yl)oxy)cyclohexane-1-carboxylate] | C (C: 0-30%) | > 200 µM |
| 0.3 to 10 µM |  |  |  | Cc1nc(COC(=O)N(C)C2CCCC2)c(-c2ccc(O[C@H]3CCC[C@H](C(=O)O)C3)cc2)s1 (racemic) [Compound 10, (+/−)-(1S,3S)-3-(4-(4-(((cyclopentyl(methyl)carbamoyl)oxy)methyl)-2-methylthiazol-5-yl)phenoxy)cyclohexane-1-carboxylic Acid] | C (C: 0-30%) | > 200 µM |

| Structure (SMILES) | IC50 [1] | half-life [4] | half-life [5] | half-life [6] | Cell migration inhibition rate (%) [2] | CC50 at 48 h [3] |
| --- | --- | --- | --- | --- | --- | --- |
| CN(Cc1ccccc1)C(=O)OCc1c(-c2ccc(O[C@H]3CCC[C@H](C(=O)O)C3)cc2)cnn1C (racemic) [Compound 2, (+/−)-(1S,3S)-3-(4-(5-(((benzyl(methyl)carbamoyl)oxy)methyl)-1-methyl-1H-pyrazol-4-yl)phenoxy)cyclohexane-1-carboxylic Acid] | 0.3 to 10 µM |  |  |  | C (C: 0-30%) | > 200 µM |
| CN(Cc1ccccc1)C(=O)OCc1ocnc1-c1ccc(O[C@H]2CCC[C@H](C(=O)O)C2)cc1 (racemic) [Compound 1, (+/−)-(1S,3S)-3-(4-(5-(((benzyl(methyl)carbamoyl)oxy)methyl)oxazol-4-yl)phenoxy)cyclohexane-1-carboxylic Acid] | 0.3 to 10 µM |  |  |  | C (C: 0-30%) | > 200 µM |
